Test systems include OVCAR-4 ovarian; SNB-19 CNS; HOP-62 NSCLC; SK-MEL-2 melanoma; PC-3 prostate; HCT-116 colon; HL-60(TB) leukemia; NCI/ADR-RES ovarian; NCI-H226 lung; OVCAR-3 ovarian; NCI-H460 lung; OVCAR-8 ovarian; SNB-75 CNS.
Experiment in all cases: NCI anticancer screen, dose series, 48 h

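Each compound was tested at five concentrations against cells in 96-well plates for 48 hours. TGI denotes the concentration required for complete inhibition of growth.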

With `CCCC(=O)OC[n+]1ccc(-c2c(COC(=O)NC(C)C)c(COC(=O)NC(C)C)c3n2CCC3)cc1`, the TGI in the assay on OVCAR-4 ovarian, in the assay on SNB-19 CNS, in the assay with HOP-62 NSCLC, with SK-MEL-2 melanoma, with PC-3 prostate and in the assay with HCT-116 colon was above 100 µM throughout. Also, the TGI in the assay with HL-60(TB) leukemia, with NCI/ADR-RES ovarian, in the assay on NCI-H226 lung, with OVCAR-3 ovarian, in the assay with NCI-H460 lung and in the assay with OVCAR-8 ovarian was above 100 µM throughout. The compound further registered a TGI in the assay with SNB-75 CNS above 100 µM.
As to `COc1cc(CNc2c3ccccc3nc3ccccc23)cc(OC)c1OC`, the TGI with OVCAR-4 ovarian was 20.3 µM; in the assay with SNB-19 CNS, 24.3 µM; with HOP-62 NSCLC it was 11.7 µM; in the assay on SK-MEL-2 melanoma, 5.66 µM; with PC-3 prostate it was 11.9 µM; with HCT-116 colon, 11.2 µM. The TGI is above 21.3 µM in the assay on HL-60(TB) leukemia; 14.2 µM in the assay with NCI/ADR-RES ovarian; 10.3 µM with NCI-H226 lung; 30.2 µM with OVCAR-3 ovarian; 8.18 µM in the assay with NCI-H460 lung; 14 µM in the assay on OVCAR-8 ovarian. In the assay on SNB-75 CNS, this compound came in with a TGI of 13.9 µM.
For `Cc1cccc(C)c1N=Nc1ccc(O)c(CN(C)C)c1`, the TGI is above 100 µM in the assay with OVCAR-4 ovarian; above 100 µM in the assay on SNB-19 CNS; above 100 µM with HOP-62 NSCLC; 88.8 µM in the assay with SK-MEL-2 melanoma; above 100 µM in the assay on PC-3 prostate; above 100 µM in the assay with HCT-116 colon. The TGI in the assay on HL-60(TB) leukemia, with NCI/ADR-RES ovarian, with NCI-H226 lung, with OVCAR-3 ovarian, in the assay on NCI-H460 lung and in the assay on OVCAR-8 ovarian was above 100 µM throughout. For the same compound, the TGI with SNB-75 CNS was above 100 µM.
`C(#CC1(Nc2ccccc2)CCN(Cc2ccccc2)CC1)C1(Nc2ccccc2)CCN(Cc2ccccc2)CC1`: the TGI with OVCAR-4 ovarian was 53.7 µM; in the assay on SNB-19 CNS, 52.9 µM; with HOP-62 NSCLC, 40.7 µM; in the assay with SK-MEL-2 melanoma, 20.1 µM; in the assay on PC-3 prostate, 36.5 µM; in the assay on HCT-116 colon, 54.2 µM. Besides, the TGI was 11.7 µM in the assay with HL-60(TB) leukemia; above 100 µM in the assay with NCI/ADR-RES ovarian; above 56.2 µM in the assay on NCI-H226 lung; above 97.1 µM in the assay with OVCAR-3 ovarian; above 46.4 µM in the assay on NCI-H460 lung; 53.5 µM with OVCAR-8 ovarian. Also, in the assay on SNB-75 CNS, the TGI was 29.7 µM.
For `CN1CC2=C(NC(=S)NC2c2ccccc2Cl)/C(=C/c2ccccc2Cl)C1` (centres undefined), the TGI with OVCAR-4 ovarian is 76.7 µM; with SNB-19 CNS, above 100 µM; in the assay on HOP-62 NSCLC, above 100 µM; with SK-MEL-2 melanoma, above 100 µM; with PC-3 prostate it was above 100 µM; in the assay with HCT-116 colon, above 100 µM. The TGI with HL-60(TB) leukemia is 62.6 µM; with NCI/ADR-RES ovarian it was above 100 µM; with NCI-H226 lung it was above 100 µM; with OVCAR-3 ovarian it was above 100 µM; with NCI-H460 lung, above 100 µM; with OVCAR-8 ovarian, above 100 µM. Moreover, in the assay on SNB-75 CNS, the TGI was 23.8 µM.
As for `CS(=O)(=O)O[C@H]1[C@H](O)c2ccccc2[C@@H]1N=[N+]=[N-]`, the TGI in the assay with OVCAR-4 ovarian, in the assay with SNB-19 CNS, with HOP-62 NSCLC, in the assay on SK-MEL-2 melanoma, in the assay on PC-3 prostate and in the assay on HCT-116 colon was above 100 µM in each case. The TGI with HL-60(TB) leukemia, in the assay with NCI/ADR-RES ovarian, in the assay with NCI-H226 lung, in the assay with OVCAR-3 ovarian, in the assay with NCI-H460 lung and in the assay on OVCAR-8 ovarian was above 100 µM each time. This compound displayed a TGI in the assay with SNB-75 CNS above 100 µM.
Regarding `CCC12C=CCN3CCC4(c5cc(C(c6ccc(OC)cc6)C6Cc7ccccc7N6)c(OC)cc5N(C)C4C(O)(C(=O)OC)C1O)C32` (centres undefined), the TGI in the assay with OVCAR-4 ovarian was above 100 µM; in the assay with SNB-19 CNS, above 100 µM; in the assay with HOP-62 NSCLC it was 90.1 µM; in the assay on SK-MEL-2 melanoma it was 68.8 µM; with PC-3 prostate, above 100 µM; with HCT-116 colon it was above 100 µM. The TGI is 24.1 µM with HL-60(TB) leukemia; above 100 µM in the assay on NCI/ADR-RES ovarian; above 100 µM in the assay on NCI-H226 lung; 94.9 µM in the assay with OVCAR-3 ovarian; 54.5 µM in the assay on NCI-H460 lung; above 100 µM in the assay on OVCAR-8 ovarian. The compound also showed a TGI in the assay with SNB-75 CNS of 33.7 µM.
With `CC(C)Cn1cnc2c(Cl)nc3ccccc3c21`, the TGI with OVCAR-4 ovarian, with SNB-19 CNS, with HOP-62 NSCLC, in the assay with SK-MEL-2 melanoma, in the assay with PC-3 prostate and with HCT-116 colon was above 100 µM throughout. For the same compound, the TGI in the assay on HL-60(TB) leukemia was 62.9 µM; with NCI/ADR-RES ovarian it was above 100 µM; in the assay on NCI-H226 lung it was above 100 µM; in the assay with OVCAR-3 ovarian, above 100 µM; in the assay with NCI-H460 lung it was above 100 µM; in the assay on OVCAR-8 ovarian it was above 100 µM. In the assay on SNB-75 CNS, the TGI stood at 88 µM.
